{"source": "patent US7141553B2", "about": "“A3AR agonists for the treatment of inflammatory arthritis” (Can-Fite Biopharma Ltd. Israel, priority 2002, dated 2006)", "tested_on": "adjuvant induced arthritis", "experiment": "Adjuvant arthritis model in Lewis rats", "type": "in vivo, rat"}
{"molecule": "CNC(=O)[C@H]1O[C@@H](n2cnc3c(NCc4cccc(I)c4)nc(Cl)nc32)[C@H](O)[C@@H]1O", "note": "[Cl-IB-MECA, 2-chloro-N^6-(3-iodobenzyl)-adenosine-5′-N-methyl-uronamide]", "values": [{"measurement": "appearance of paws", "setting": "10 μg/kg a day PO, untreated rat paws extremely swollen and red", "result": "normal appearing paws"}, {"measurement": "improvement of arthritis score, 10 μg a day compared with 100 μg/kg a day", "setting": "PO, from day 7 after disease induction, FIG. 4", "result": "significantly more effective"}]}
